Data on 11 compounds can be found in patent publication US9732063B2, “Kinase inhibitors” (RESPIVERT LIMITED, priority 2012, dated 2017).

In experiment [1] the test system is PBMCs. As to the kind of experiment: LPS-induced TNFα/IL-8 release in PBMC cells. Type of experiment: cell-based. As to conditions: Homo sapiens, read-out: IC50 Values for Inhibition of Cytokine Release PBMCs IL-8. In a few lines:
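Healthy-donor PBMCs, isolated by density gradient, were pretreated with compound for 2 h and then stimulated with 1 ng/mL E. coli O111:B4 LPS for 24 h at 37 °C, 5% CO2. Supernatant IL-8 and TNFα were quantified by sandwich ELISA.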

The subject of a further experiment is HT29 cells. Description: IL-1β-induced IL-8 release in HT29 cells. The class given is cell-based. The conditions noted are these: Homo sapiens, HT-29, read-out: IC50 Values for Inhibition of Cytokine Release HT29 cells IL-8. The procedure: HT29 cells, a human colon adenocarcinoma cell line, are plated in a 96 well plate (24 hrs) and pre-treated with compounds at the desired concentration for 2 hours before addition of 5 ng/mL of IL-1β (Abcam) for 24 hours. Supernatants are harvested for IL-8 quantification by Sandwich ELISA (Duo-set, R&D System). The IC50 is determined from the dose response curve.

Another experiment concerns d-U937 cells. As to the kind of experiment: LPS-induced TNFα/IL-8 release in d-U937 cells. Type of experiment: cell-based. The conditions noted are these: Homo sapiens. The procedure: Cells are pre-incubated with final concentrations of test compound for 2 hr and are then stimulated with 0.1 μg/mL of LPS (from E. coli: O111:B4, Sigma) for 4 hr. The supernatant is collected for determination of TNFα and IL-8 concentrations by sandwich ELISA (Duo-set, R&D systems). […] The relative 50% effective concentration (REC50) is determined from the resultant concentration-response curve. The inhibition of IL-8 production is calculated at each concentration of test compound by comparison with vehicle control.

The target in a further experiment is c-Src (Homo sapiens (Human), UniProt P12931). Description: c-Src enzyme inhibition (Z-LYTE FRET). Type of experiment: biochemical. The procedure: (§1) The enzyme inhibitory activities of compounds disclosed herein are determined by FRET using synthetic peptides labelled with both donor and acceptor fluorophores (Z-LYTE, Invitrogen Ltd., Paisley, UK).
(§2) The relevant enzyme (3000 ng/mL or 2000 ng/mL respectively, 2.5 μL) is incubated with the test compound (either 4 μg/mL, 0.4 μg/mL, 0.04 μg/mL, or 0.004 μg/mL, 2.5 μL each) for 2 hr at RT. The FRET peptides (8 μM, 2.5 μL), and appropriate ATP solutions (2.5 μL, 800 μM for c-Src, and 60 μM ATP for Syk) are then added to the enzymes/compound mixtures and incubated for 1 hr. Development reagent (protease, 5 μL) is added for 1 hr prior to detection in a fluorescence microplate reader (Varioskan® Flash, ThermoFisher Scientific).
(§3) In all cases, the site-specific protease cleaves non-phosphorylated peptide only and eliminates the FRET signal. Phosphorylation levels of each reaction are calculated using the ratio of coumarin emission (donor) over fluorescein emission (acceptor), for which high ratios indicate high phosphorylation and low ratios indicate low phosphorylation levels.

The subject of experiment [2] is PBMCs. As to the kind of experiment: IL-2 and IFN gamma release in CD3/CD28 stimulated PBMC cells. As to conditions: Homo sapiens. Type of experiment: cell-based. Summed up:
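They were cultured with compound for 3 days. IL-2 and IFN-γ in supernatants were quantified by sandwich ELISA, and IC50 was derived from the dose-response curve.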

The next experiment has as its target p38 MAPKα (Homo sapiens (Human), UniProt Q16539). Description: p38 MAPKα enzyme inhibition (Z-LYTE FRET, Method 2). The class given is biochemical. How it is done: as §1
The inhibitory activities of test compounds against the p38 MAPKα isoform (MAPK14: Invitrogen), are evaluated indirectly by determining the level of activation/phosphorylation of the down-stream molecule, MAPKAP-K2. The p38 MAPKα protein (80 ng/mL, 2.5 μL) is mixed with the test compound (2.5 μL of either 4 μg/mL, 0.4 μg/mL, 0.04 μg/mL or 0.004 μg/mL) for 2 hr at RT. […] The mixture is incubated for 1 hr at RT. Development reagent (protease, 5 μL) is added for 1 hr prior to detection in a fluorescence microplate reader (Varioskan® Flash, ThermoFisher Scientific).
as §3

For a further experiment, the target named is Syk (Homo sapiens (Human), UniProt P43405). As to the kind of experiment: Syk enzyme inhibition (Z-LYTE FRET). The class given is biochemical. The procedure:
as §1, §2, §3

Another experiment has as its target GSK3α (Homo sapiens (Human), UniProt P49840). As to the kind of experiment: GSK 3α enzyme inhibition (Z-LYTE FRET, Method 2). Type of experiment: biochemical. In a few lines:
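Z-LYTE FRET: GSK3α preincubated with compound 2 h at RT, then FRET peptide and ATP added (stocks 8 μM and 40 μM) for 1 h, followed by 1 h protease development. Compound stocks 4–0.004 μg/mL; phosphorylation from coumarin/fluorescein emission ratio.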

Setting [3] is: dU937, read-out: IC50 Values for Inhibition of Cytokine Release dU937 cells TNFα.
Setting [4] is: read-out: IC50 Values for Inhibition of Cytokine Release PBMCs IL-2.
[5] abbreviates: dU937, read-out: IC50 Values for Inhibition of Cytokine Release dU937 cells IL-8.
Where [6] appears, read: read-out: IC50 Values for Inhibition of Cytokine Release PBMCs IFNγ.

Like-named read-outs stand apart in the source and are kept apart here.

Chain of p38 MAPKα (Q16539 whole entry, canonical isoform): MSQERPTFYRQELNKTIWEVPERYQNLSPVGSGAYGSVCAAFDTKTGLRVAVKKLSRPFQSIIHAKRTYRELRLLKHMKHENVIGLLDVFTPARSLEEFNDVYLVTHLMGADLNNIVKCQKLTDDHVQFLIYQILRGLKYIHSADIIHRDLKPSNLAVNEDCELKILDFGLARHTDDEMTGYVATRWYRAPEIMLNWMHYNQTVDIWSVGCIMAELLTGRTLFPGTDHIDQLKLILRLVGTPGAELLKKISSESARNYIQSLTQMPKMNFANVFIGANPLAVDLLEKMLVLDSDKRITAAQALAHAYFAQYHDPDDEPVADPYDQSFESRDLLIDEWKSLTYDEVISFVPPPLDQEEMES
Chain of GSK3α (P49840 whole entry): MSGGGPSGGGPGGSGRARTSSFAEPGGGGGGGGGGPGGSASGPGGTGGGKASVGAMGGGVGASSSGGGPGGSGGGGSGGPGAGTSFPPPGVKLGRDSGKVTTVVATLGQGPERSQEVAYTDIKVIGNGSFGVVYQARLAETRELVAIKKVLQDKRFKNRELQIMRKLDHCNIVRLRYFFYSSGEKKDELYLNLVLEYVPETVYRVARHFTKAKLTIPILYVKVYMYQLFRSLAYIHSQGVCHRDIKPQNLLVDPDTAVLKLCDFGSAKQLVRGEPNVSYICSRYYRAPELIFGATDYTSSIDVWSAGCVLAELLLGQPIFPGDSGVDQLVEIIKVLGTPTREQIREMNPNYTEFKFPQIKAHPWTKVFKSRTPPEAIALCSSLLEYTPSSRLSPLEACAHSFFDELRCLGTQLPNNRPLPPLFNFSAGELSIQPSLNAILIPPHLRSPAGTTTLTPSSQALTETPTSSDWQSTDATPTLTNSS
Chain of c-Src (P12931 whole entry, looked up): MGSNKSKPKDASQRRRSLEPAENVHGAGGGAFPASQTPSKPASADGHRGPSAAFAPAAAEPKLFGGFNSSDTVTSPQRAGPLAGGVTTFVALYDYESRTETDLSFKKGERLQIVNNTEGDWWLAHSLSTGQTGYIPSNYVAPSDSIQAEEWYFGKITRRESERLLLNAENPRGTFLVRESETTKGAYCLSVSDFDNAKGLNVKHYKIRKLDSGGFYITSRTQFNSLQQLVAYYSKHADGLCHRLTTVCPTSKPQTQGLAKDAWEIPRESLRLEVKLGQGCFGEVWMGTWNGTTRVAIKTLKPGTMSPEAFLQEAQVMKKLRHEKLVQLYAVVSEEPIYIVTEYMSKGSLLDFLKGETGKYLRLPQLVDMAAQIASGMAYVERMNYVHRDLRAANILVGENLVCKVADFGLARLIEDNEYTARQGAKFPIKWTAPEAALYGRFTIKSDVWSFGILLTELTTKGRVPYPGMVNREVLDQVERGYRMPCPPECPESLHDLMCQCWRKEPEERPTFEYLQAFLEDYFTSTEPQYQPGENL

As for `Cc1ccc(-n2nc(C(C)C)cc2NC(=O)Nc2ccc(Oc3ccnc(Nc4cccc(N=S(C)(C)=O)c4)n3)c3ccccc23)cc1` [Example 14], the IC50 is 0.0024 µM in the experiment with PBMCs [1] and 0.0079 µM in the experiment on HT29 cells.
Regarding `COc1cc(Nc2nccc(Oc3ccc(NC(=O)Nc4cc(C(C)C)nn4-c4ccc(C)cc4)c4ccccc34)n2)cc(OCCOCCOCCO)c1` [Example 20, 1-(4-((2-((3-(2-(2-(2-Hydroxyethoxy)ethoxy)ethoxy)-5-methoxyphenyl)amino)pyrimidin-4-yl)oxy)naphthalen-1-yl)-3-(3-isopropyl-1-(P-tolyl)-1H-pyrazol-5-yl)urea], the IC50 turned out to be 0.0016 µM with d-U937 cells (setting [3]); 0.0015 µM in the experiment with PBMCs [1]; 0.008 µM at c-Src; 0.0808 µM with PBMCs [2] (setting [4]); 0.026 µM on p38 MAPKα; 0.008 µM on Syk.
Turning to `COc1cc(Nc2nccc(Oc3ccc(NC(=O)Nc4cc(C(C)C)nn4-c4ccc(C)cc4)c(Cl)c3Cl)n2)cc(OCCN2CCOCC2)c1` [Example 21, 1-(2,3-Dichloro-4-((2-((3-methoxy-5-(2-morpholinoethoxyl)phenyl)amino)pyrimidin-4-yl)-oxy)phenyl)-3-(3-isopropyl-1-(p-tolyl)-1H-pyrazol-5-yl)urea], the IC50 in the experiment on d-U937 cells (setting [5]) is 0.0016 µM; with d-U937 cells (setting [3]) it was 0.0011 µM; in the experiment on PBMCs [1], 0.0016 µM; against c-Src, 0.061 µM; with PBMCs [2] (setting [6]), 0.0019 µM; with PBMCs [2] (setting [4]), 0.0107 µM. Further, the results for the IC50 at p38 MAPKα and against Syk were 0.342 µM and 0.072 µM, respectively.
Turning to `COc1cc(Nc2nccc(Oc3ccc(NC(=O)Nc4cc(C(C)(C)C)nn4-c4ccc(C)cc4)c4ccccc34)n2)cc(OCCN2CCOCC2)c1` [Example 45, 1-(3-(tert-Butyl)-1-(P-tolyl)-1H-pyrazol-5-yl)-3-(4-((2-((3-methoxy-5-(2-morpholinoethoxy)-phenyl)amino)pyrimidin-4-yl)oxy)naphthalen-1-yl)urea], the IC50 worked out at 0.0032 µM in the experiment with PBMCs [1]; 0.012 µM against c-Src; 0.0022 µM in the experiment with PBMCs [2] (setting [6]); 0.0738 µM with PBMCs [2] (setting [4]); 0.144 µM against p38 MAPKα; 1.49 µM against GSK3α. The compound also gave an IC50 on Syk of 0.015 µM.
With `COc1cc(Nc2nccc(Oc3ccc(NC(=O)Nc4cc(C(C)(C)C)nn4-c4ccc(C)cc4)c4ccccc34)n2)cc(OCCCN2CCOCC2)c1` [Example 49, 1-(3-(tert-Butyl)-1-(p-tolyl)-1H-pyrazol-5-yl)-3-(4-((2-((3-methoxy-5-(3-morpholino-propoxy)phenyl)amino)pyrimidin-4-yl)oxy)naphthalen-1-yl)urea], the IC50 in the experiment with PBMCs [1] turned out to be 0.0019 µM; at c-Src, 0.023 µM; with PBMCs [2] (setting [6]), 0.0012 µM; in the experiment on PBMCs [2] (setting [4]), 0.0547 µM; in the experiment with HT29 cells, 0.0023 µM; against p38 MAPKα it was 0.175 µM. In addition, the IC50 against GSK3α came out at 7.26 µM; against Syk it was 0.02 µM.
As to `COCCOCCOCCOc1cc(Nc2nccc(Oc3ccc(NC(=O)Nc4cc(C(C)(C)C)nn4-c4ccc(C)cc4)c(Cl)c3Cl)n2)cc(OC)c1` [Example 53, 1-(3-(tert-Butyl)-1-(p-tolyl)-1H-pyrazol-5-yl)-3-(2,3-dichloro-4-((2-((3-methoxy-5-(2-(2-(2-methoxyethoxyl)ethoxy)ethoxy)phenyl)amino)pyrimidin-4-yl)oxy)phenyl)urea], the IC50 in the experiment on PBMCs [1] came out at 0.0038 µM; at c-Src it was 0.023 µM; with PBMCs [2] (setting [6]), 0.0021 µM; with PBMCs [2] (setting [4]) it was 0.133 µM; in the experiment with HT29 cells, 0.0024 µM; against p38 MAPKα, 0.816 µM. In addition, the IC50 was above 10 µM against GSK3α and 0.056 µM against Syk.
For the compound `COc1cc(Nc2nccc(Oc3ccc(NC(=O)Nc4cc(C(C)(C)C)nn4-c4ccc(C)cc4)c4ccccc34)n2)cc(SCCO)c1` [Example 55, 1-(3-(tert-Butyl)-1-(p-tolyl)-1H-pyrazol-5-yl)-3-(4-((2-((3-((2-hydroxyethyl)thio)-5-methoxyphenyl)amino)pyrimidin-4-yl)oxy)naphthalen-1-yl)urea], the IC50 in the experiment with PBMCs [1] was 0.002 µM; with PBMCs [2] (setting [6]), 0.002 µM; with PBMCs [2] (setting [4]), 0.0368 µM; in the experiment on HT29 cells, 0.0024 µM; against p38 MAPKα, 0.2 µM; against GSK3α, 1.23 µM. Moreover, the IC50 on Syk was 0.042 µM.
In the case of `COc1cc(Nc2nccc(Oc3ccc(NC(=O)Nc4cc(C(C)(C)C)nn4-c4ccc(OC)nc4)c4ccccc34)n2)cc(S(=O)(=O)C2CC2)c1` [Example 61, 1-(3-(tert-Butyl)-1-(6-methoxypyridin-3-yl)-1H-pyrazol-5-yl)-3-(4-((2-((3-(cyclopropylsulfonyl)-5-methoxyphenyl)amino)pyrimidin-4-yl)oxy)naphthalen-1-yl)urea], the IC50 stood at 0.002 µM in the experiment on PBMCs [1]; 0.073 µM against c-Src; 0.0019 µM in the experiment on PBMCs [2] (setting [6]); 0.0424 µM with PBMCs [2] (setting [4]); 0.0048 µM in the experiment on HT29 cells; 0.301 µM on p38 MAPKα. For the same compound, on GSK3α, the IC50 worked out at 3.8 µM.
For `COc1cc(Nc2nccc(Oc3ccc(NC(=O)Nc4cc(C(C)(C)C)nn4-c4ccc(C)cc4)c4ccccc34)n2)cc(OCCOCCOCCO)c1` [Example 62, 1-(3-(tert-Butyl)-1-(P-tolyl)-1H-pyrazol-5-yl)-3-(4-((2-((3-(2-(2-(2-hydroxyethoxy)ethoxy)ethoxy)-5-methoxyphenyl)amino)pyrimidin-4-yl)oxy)naphthalen-1-yl)urea], the IC50 worked out at 0.0015 µM in the experiment on PBMCs [1]; 0.004 µM against c-Src; 0.0021 µM with PBMCs [2] (setting [6]); 0.0529 µM with PBMCs [2] (setting [4]); 0.0025 µM in the experiment with HT29 cells; 0.095 µM against p38 MAPKα. At Syk, this compound gave an IC50 of 0.006 µM.
Consider `COc1ccc(-n2nc(C(C)(C)C)cc2NC(=O)Nc2ccc(Oc3ccnc(Nc4cc(OC)cc(S(=O)(=O)C5CC5)c4)n3)c3ccccc23)cc1` [Example 70, 1-(3-(tert-Butyl)-1-(4-methoxyphenyl)-1H-pyrazol-5-yl)-3-(4-((2-((3-(cyclopropylsulfonyl)-5-methoxyphenyl)amino)pyrimidin-4-yl)oxy)naphthalen-1-yl)urea], for which the IC50 in the experiment with d-U937 cells (setting [5]) came out at 0.0019 µM; in the experiment on d-U937 cells (setting [3]), 0.0011 µM; in the experiment with PBMCs [1], 0.0009 µM; in the experiment on PBMCs [2] (setting [6]), 0.0014 µM; in the experiment with PBMCs [2] (setting [4]), 0.0735 µM; on p38 MAPKα, 0.3 µM. Further, the IC50 on GSK3α came out at 3.35 µM; on Syk, 0.062 µM.
For the compound `COc1cc(Nc2nccc(Oc3ccc(NC(=O)Nc4cc(C(C)(C)C)nn4-c4ccc(C)cc4)c(Cl)c3Cl)n2)cc(OCCOCCOCCO)c1` [Example 71, 1-(3-(tert-Butyl)-1-(p-tolyl)-1H-pyrazol-5-yl)-3-(2,3-dichloro-4-((2-((3-(2-(2-(2-hydroxyethoxyl)ethoxy)ethoxy)-5-methoxyphenyl)amino)pyrimidin-4-yl)oxy)phenyl)urea], the IC50 with d-U937 cells (setting [5]) amounted to 0.0013 µM; in the experiment with d-U937 cells (setting [3]), 0.001 µM; in the experiment on PBMCs [1] it was 0.0018 µM; on c-Src it was 0.019 µM; with PBMCs [2] (setting [6]) it was 0.0011 µM; with PBMCs [2] (setting [4]), 0.0608 µM. Also, the results for the IC50 against p38 MAPKα, at GSK3α and at Syk were 0.74 µM, 7.74 µM and 0.023 µM, respectively.

Usually IC50 stands for the concentration needed to halve the response being measured.
